Assay results taken from patent US9469650B2, “Melampomagnolide B derivatives” (BOARD OF TRUSTEES OF THE UNIVERSITY OF ARKANSAS, priority 2013, dated 2016).

How the values were obtained:
[1] = system: MOLT-4; experiment: panel of 60 human tumor cell lines, growth inhibition (Leukemia); settings: Homo sapiens
[2] = system: SR; experiment: as above; settings: Homo sapiens
[3] = system: LOX IMVI; experiment: panel of 60 human tumor cell lines, growth inhibition (Melanoma); settings: Homo sapiens
[4] = system: UACC-257; experiment: as above
[5] = system: SF-295; experiment: panel of 60 human tumor cell lines, growth inhibition (CNS Cancer); settings: Homo sapiens
[6] = system: SF-539; experiment: as above; settings: Homo sapiens
[7] = system: U251; experiment: as above; settings: Homo sapiens
[8] = system: COLO 205; experiment: panel of 60 human tumor cell lines, growth inhibition (Colon Cancer); settings: Homo sapiens
[9] = system: HT29; experiment: as above; settings: for Percent Growth: HT29
[10] = system: SW-620; experiment: as above; settings: Homo sapiens; for GI50: SW-620, SW-620
[11] = system: CAKI-1; experiment: panel of 60 human tumor cell lines, growth inhibition (Renal Cancer); settings: Homo sapiens
[12] = system: MDA-MB-468; experiment: panel of 60 human tumor cell lines, growth inhibition (Breast Cancer); settings: Homo sapiens
[13] = system: PC-3; experiment: panel of 60 human tumor cell lines, growth inhibition (Prostate Cancer); settings: Homo sapiens
[14] = system: HOP-62; experiment: panel of 60 human tumor cell lines, growth inhibition (Non-Small Cell Lung Cancer); settings: Homo sapiens
[15] = system: HOP-92; experiment: as above; settings: Homo sapiens
[16] = system: NCI-H322M; experiment: as above; settings: Homo sapiens

C=C1C(=O)O[C@H]2[C@H]1CC/C(COC(=O)Nc1n[nH]c(SC)n1)=C\CC[C@@]1(C)O[C@@H]21 [JVM 64, ((1aR,7aS,10aS,10bS,E)-1a-methyl-8-methylene-9-oxo-1a,2,3,6,7,7a,8,9,10a,10b-decahydrooxireno[2′,3′:9,10]cyclodeca[1,2-b]furan-5-yl)methyl-(5-(methylthio)-1H-1,2,4-triazol-3-yl)carbamate]
GI50 ([1]; MOLT-4): 2.32 µM
CC50 ([1]; MOLT-4, read-out: LC50): 88.5 µM
IC (TGI) ([1]; MOLT-4, read-out: TGI): 6.59 µM
GI50 [2]: 2.36 µM
CC50 ([2]; read-out: LC50): > 100 µM
IC (TGI) ([2]; read-out: TGI): 7.13 µM
GI50 ([3]; 5-dose assay): 1.95 µM
GI50 ([3]; NCI five dose): 1.95 µM
CC50 ([3]; read-out: LC50): 19.8 µM
IC (TGI) ([3]; read-out: TGI): 5.03 µM
GI50 ([4]; Homo sapiens, UACC-257): 1.66 µM
CC50 ([4]; Homo sapiens, UACC-257, read-out: LC50): 31.9 µM
Percent Growth ([4]; UACC-257, Log10 Concentration −4.0): −80%
Percent Growth ([4]; UACC-257, Log10 Concentration −5.0): −20%
Percent Growth ([4]; UACC-257, Log10 Concentration −6.0): 70%
Percent Growth ([4]; UACC-257, Log10 Concentration −7.0): 93%
Percent Growth ([4]; UACC-257, Log10 Concentration −8.0): 102%
TGI ([4]; UACC-257, NCI five dose): 6.02E−6
GI50 ([5]; SF-295): 14.1 µM
CC50 ([5]; SF-295, read-out: LC50): 64.1 µM
IC (TGI) ([5]; SF-295, read-out: TGI): 30.1 µM
GI50 ([6]; SF-539): 1.76 µM
CC50 ([6]; SF-539, read-out: LC50): 9.46 µM
IC (TGI) ([6]; SF-539, read-out: TGI): 4.08 µM
GI50 ([7]; U-251): 3.62 µM
CC50 ([7]; U-251, read-out: LC50): 51 µM
IC (TGI) ([7]; U-251, read-out: TGI): 15.8 µM
GI50 ([8]; COLO 205): 1.79 µM
CC50 ([8]; COLO 205, read-out: LC50): 7.35 µM
IC (TGI) ([8]; COLO 205, read-out: TGI): 3.63 µM
Percent Growth ([9]; Log10 Concentration −4.0): −79%
Percent Growth ([9]; Log10 Concentration −5.0): −11%
Percent Growth ([9]; Log10 Concentration −6.0): 92%
Percent Growth ([9]; Log10 Concentration −7.0): 101%
Percent Growth ([9]; Log10 Concentration −8.0): 102%
GI50 ([9]; Homo sapiens, HT-29): 2.55 µM
CC50 ([9]; Homo sapiens, HT-29, read-out: LC50): 37.4 µM
IC (TGI) ([9]; Homo sapiens, HT-29, read-out: TGI): 7.77 µM
GI50 ([10]; 5-dose assay): 1.12 µM
GI50 ([10]; NCI five dose): 1.12 µM
CC50 ([10]; SW-620, read-out: LC50): 8.49 µM
IC (TGI) ([10]; SW-620, read-out: TGI): 3.09 µM
GI50 ([11]; CAKI-1): 1.99 µM
CC50 ([11]; CAKI-1, read-out: LC50): 36.6 µM
IC (TGI) ([11]; CAKI-1, read-out: TGI): 6.93 µM
GI50 ([12]; MDA-MB-468): 1.29 µM
CC50 ([12]; MDA-MB-468, read-out: LC50): 21.8 µM
IC (TGI) ([12]; MDA-MB-468, read-out: TGI): 4.04 µM
GI50 ([13]; PC-3): 8.51 µM
CC50 ([13]; PC-3, read-out: LC50): 77 µM
IC (TGI) ([13]; PC-3, read-out: TGI): 26.8 µM
GI50 ([14]; HOP-62): 6.45 µM
CC50 ([14]; HOP-62, read-out: LC50): 64.9 µM
IC (TGI) ([14]; HOP-62, read-out: TGI): 22.3 µM
GI50 ([15]; HOP-92, HOP-92, 5-dose assay): 0.65 µM
GI50 ([15]; HOP-92, HOP-92, NCI five dose): 0.655 µM
GI50 ([15]; HOP-92, non-small cell lung cancer cell line HOP-92): 0.65 µM
CC50 ([15]; HOP-92, read-out: LC50): 20.4 µM
IC (TGI) ([15]; HOP-92, read-out: TGI): 3.84 µM
GI50 [16]: 14.2 µM
CC50 ([16]; read-out: LC50): 60.3 µM
IC (TGI) ([16]; read-out: TGI): 29.2 µM
